What all share (assay type): in vivo, Swiss Albino mice
For assay [1], the system named is IL-2. The experiment in a line: Serum IL-2 by ELISA after 28 days oral treatment with treadmill exercise training. The protocol: (§1) Sixteen 8-week-old male Swiss Albino mice were housed in an animal room at a constant temperature (22±3° C.) and humidity (30-70%) under a 12:12 h light-dark cycle with standard laboratory diet (Purina 5L79, Rat and Mouse 18% protein; PMI Nutrition International, Brentwood, MO, USA). Distilled water was provided ad libitum. All animal experiments were reviewed and approved by the Institutional Animal Ethical Committee (IAEC) of Radiant Research Services Pvt. Ltd. (Bangalore, India). All research was conducted in accordance with the guidelines of the committee for the purpose of control and supervision of experiments on animals.
(§2) After one week of acclimation, the animals were randomly divided by body weight into two groups (n=8 per group in each test) for oral treatment once a day, at approximately the same time each day (±1 h), for 28 consecutive days: (1) vehicle control; (2) paraxanthine. The dose administered to the mice was calculated using US Food and Drug Administration for human equivalence doses (HED), assuming a human weight of 60 kg. The following HED were used in this study: 100 mg paraxanthine, (ENFINITY™, Ingenious Ingredients, L.P Lewisville, TX, USA; mouse dose: 20.5 mg/kg bw/day).
(§3) During the treatment period, exercise training was completed using a motorized treadmill (Exer 3/6, Columbus Instruments international, Columbus, OH, USA) at a moderate intensity of 20 cm/sec as maximal running speed, an incline of 10 degrees and a shock intensity of 0.2 mA, for 10 min. The speed of the treadmill was manually adjusted by increasing the belt speed by 5 cm/sec every 2 min throughout the total duration of 10 min. All animals were adapted to this procedure daily 60 min after dosing for 5 days in a week during the treatment period.
(§4) On 29th day, blood was collected from retro-orbital route for biochemical analysis. IL-2, IL-6, IL-10, assay was done by using standard ELISA assay kit method. The Tfh,/iTreg assay was done by using flow cytometry method.
For orientation: ELISA stands for enzyme-linked immunosorbent assay.

The test system of assay [2] is IL-6. The experiment in a line: Serum IL-6 by ELISA after 28 days oral treatment with treadmill exercise training. The protocol: as §1, §2, §3, §4
Assay [3] relates to IL-10. The experiment in a line: Serum IL-10 by ELISA after 28 days oral treatment with treadmill exercise training. The protocol: as §1, §2, §3, §4
Assay [4] concerns C-reactive protein (CRP). The assay is described as follows: Blood C-reactive protein after 28 days oral treatment with treadmill exercise training. The protocol: as §1, §2, §3, §4
Assay [5] deals with Th1. The assay is described as follows: Th1 cells by flow cytometry after 28 days oral treatment. The protocol: as §1
(§5) After one week of acclimation, the animals were randomly divided by body weight into two groups (n=8 per group in each test) for oral treatment once a day, at approximately the same time each day (±1 h), for 28 consecutive days: (1) vehicle control; (2) paraxanthine. The dose administered to the mice was calculated using US Food and Drug Administration for human equivalence doses (HED), assuming a human weight of 60 kg. The following HED were used in this study: 100 mg paraxanthine, (ENFINITY™, Ingenious Ingredients, L.P Lewisville, TX, USA; mouse dose: 20.5 mg/kg bw/day). […]
A general note: In flow cytometry, cells or beads pass a laser one at a time.

Assay [6] relates to Th2. The assay is described as follows: Th2 cells by flow cytometry after 28 days oral treatment. The protocol: as §1, §5
Assay [7] has as its system Th17. The assay is described as follows: Th17 cells by flow cytometry after 28 days oral treatment. The protocol: as §1, §5
Assay [8] has as its system Tfh. The experiment in a line: Tfh cells by flow cytometry after 28 days oral treatment. The protocol: as §1, §5
Assay [9] has as its system iTreg. The experiment in a line: iTreg cells by flow cytometry after 28 days oral treatment. The protocol:
as §1, §5

Where [10] appears, read: mice, 28 days oral, versus control.

From US20240033269A1, “PPARAXANTHINE-BASED COMPOSITIONS FOR INHIBITING INFLAMMATION, IMPROVING JOINT HEALTH, AND ENHANCING IMMUNE FUNCTION” (PX ING, LLC, priority 2022, published 2024) come the findings set out here.

SMILES strings stand for the structures.

In the case of `Cn1c(=O)[nH]c2ncn(C)c2c1=O` [Paraxanthine, 1,7-dimethyl-3H-purine-2,6-dione], the “Delta IL-2” value in assay [1] (change versus control, day 29) is “+23.1%”. The “effect on IL-2 (in words)” value in assay [1] (setting [10]) is recorded as “increased”. The “IL-2 (ng/L) Adaptive Immunity” value in assay [1] (mice, oral once daily 28 days (paraxanthine 20.5 mg/kg bw/day), blood on day 29, control 37.29 ± 1.88) is 45.91 ± 2.68 ng/L. In addition, the “Delta IL-6” value in [2] (change versus control, day 29) was −7.7%. Moreover, the “effect on pro-inflammatory cytokine IL-6 (in words)” value in assay [2] (setting [10]) is listed as “reduced”. Moreover, the “IL-6 (pg/ml) Pro-inflammatory” value in assay [2] (mice, oral once daily 28 days (paraxanthine 20.5 mg/kg bw/day), blood on day 29, control 369.04 ± 13) was 340.6 ± 13.6 pg/mL. In addition, in assay [3] (change versus control, day 29), the “Delta IL-10” value was “+8.3%”. In [3] (setting [10]), the “effect on anti-inflammatory cytokine IL-10 (in words)” value is on record as “increased”. The “IL-10 (pg/ml) Anti-inflammatory” value in assay [3] (mice, oral once daily 28 days (paraxanthine 20.5 mg/kg bw/day), blood on day 29, control 527.86 ± 9.22) was found to be 571.71 ± 16.43 pg/mL. Besides, the “Delta CRP” value in assay [4] (change versus control, day 29) is reported as −18.3%. Moreover, the “effect on C-reactive protein (CRP) (in words)” value in [4] (setting [10]) is “reduced”. Besides, the “CRP (mg/L) Inflammation” value in assay [4] (mice, oral once daily 28 days (paraxanthine 20.5 mg/kg bw/day), blood on day 29, control 0.77 ± 0.09) came out at 0.64 ± 0.07 mg/L. In addition, in assay [5] (change versus control, day 29), the “Delta Th1” value is −29.8%. For the same molecule, in assay [5] (mice, oral 20.5 mg/kg bw/day 28 days, blood on day 29, control 93.54 ± 2.82), the “Th1 (%)” value is 65.68 ± 3.98 %. For the same molecule, the “Delta Th2” value in [6] (change versus control, day 29) is “+368.0%”. Also, the “Th2 (%)” value in [6] (mice, oral 20.5 mg/kg bw/day 28 days, blood on day 29, control 11.46 ± 3.16) turned out to be 53.63 ± 3.85 %. The “Delta Th17” value in assay [7] (change versus control, day 29) is “+758.4%”. Besides, in [7] (mice, oral 20.5 mg/kg bw/day 28 days, blood on day 29, control 3.65 ± 0.85), the “Th17 (%)” value turned out to be 31.33 ± 1.31 %. In assay [8] (change versus control, day 29), the “Delta Tfh” value was “+602.8%”. Also, the “Tfh (%)” value in assay [8] (mice, oral 20.5 mg/kg bw/day 28 days, blood on day 29, control 7.82 ± 1.04) is on record as 54.96 ± 4.44 %. Further, the “Delta iTreg” value in assay [9] (change versus control, day 29) was −56.5%. Besides, the “iTreg (%)” value in assay [9] (mice, oral 20.5 mg/kg bw/day 28 days, blood on day 29, control 54.47 ± 4.2) is listed as 23.68 ± 2.62 %.
